From PubChem BioAssay AID1259407 (Chemical Carcinogenesis Research Information System (CCRIS), 2018) come the findings set out here.

The structures appear in SMILES notation. Activity calls are given as the source filed them. How the calls were made is not given here.

This data set concerns CCRIS mutagenicity, Ames/micronucleus/aberration tests. The data set is described as follows: CCRIS mutagenicity studies.
Setting [1] is: Test System: AMES SALMONELLA TYPHIMURIUM, Strain/Indicator: TA98, Metabolic Activation: NONE, Method: STANDARD PLATE.
Where [2] appears, read: Test System: AMES SALMONELLA TYPHIMURIUM, Strain/Indicator: TA100, Metabolic Activation: NONE, Method: STANDARD PLATE.
[3] abbreviates: Test System: AMES SALMONELLA TYPHIMURIUM, Strain/Indicator: TA1535, Metabolic Activation: NONE, Method: STANDARD PLATE.
Setting [4] is: Test System: AMES SALMONELLA TYPHIMURIUM, Strain/Indicator: TA1537, Metabolic Activation: NONE, Method: STANDARD PLATE.
The mark [5] stands for this setting: Test System: AMES SALMONELLA TYPHIMURIUM, Strain/Indicator: TA1538, Metabolic Activation: NONE, Method: STANDARD PLATE.
[6] abbreviates: Test System: AMES SALMONELLA TYPHIMURIUM, Strain/Indicator: TA98, Metabolic Activation: RAT, LIVER, S-9, AROCLOR 1254, Method: STANDARD PLATE.

For the compound `O=C(NC(Cc1cc(=O)[nH]c2ccccc12)C(=O)O)c1ccc(Cl)cc1` (stereo not drawn), the mutagenic call by setting is: under setting [1], “inactive; negative”; (Test System: AMES SALMONELLA TYPHIMURIUM, Strain/Indicator: TA98, Metabolic Activation: S-9, Method: STANDARD PLATE) “inactive; negative”; under setting [2], “inactive; negative”; (Test System: AMES SALMONELLA TYPHIMURIUM, Strain/Indicator: TA100, Metabolic Activation: S-9, Method: STANDARD PLATE) “inactive; negative”; under setting [3], “inactive; negative”; (Test System: AMES SALMONELLA TYPHIMURIUM, Strain/Indicator: TA1535, Metabolic Activation: S-9, Method: STANDARD PLATE) “inactive; negative”. For the same compound, the mutagenic call under setting [4] was “inactive; negative”; the mutagenic call (Test System: AMES SALMONELLA TYPHIMURIUM, Strain/Indicator: TA1537, Metabolic Activation: S-9, Method: STANDARD PLATE) is “inactive; negative”; the mutagenic call under setting [5] is “inactive; negative”; the mutagenic call (Test System: AMES SALMONELLA TYPHIMURIUM, Strain/Indicator: TA1538, Metabolic Activation: S-9, Method: STANDARD PLATE) was “inactive; negative”; the mutagenic call (Test System: E.COLI, Strain/Indicator: WP2 UVRA, Metabolic Activation: NONE, Method: STANDARD PLATE) is “inactive; negative”; the mutagenic call (Test System: E.COLI, Strain/Indicator: WP2 UVRA, Metabolic Activation: S-9, Method: STANDARD PLATE) is “inactive; negative”.

Consider `CC(Cl)CCCC(Cl)CCCC(Cl)CCCC(Cl)CCCC(Cl)CCCC(Cl)CCCl` (stereo not drawn), for which the mutagenic call is, setting by setting: (End Point: IN VITRO CHROMOSOMAL ABERRATIONS, Test System: CHO CELLS, Metabolic Activation: NONE) “active; positive; oily droplets formed at all doses”; (End Point: IN VITRO CHROMOSOMAL ABERRATIONS, Test System: CHO CELLS, Metabolic Activation: RAT, LIVER, S-9, AROCLOR 1254) “inactive; negative; oily droplets formed at all doses”; (Test System: AMES SALMONELLA TYPHIMURIUM, Strain/Indicator: TA98, Metabolic Activation: HAMSTER, LIVER, S-9, AROCLOR 1254, Method: PREINCUBATION) “inactive; negative”; (Test System: AMES SALMONELLA TYPHIMURIUM, Strain/Indicator: TA98, Metabolic Activation: NONE, Method: PREINCUBATION) “inactive; negative”; (Test System: AMES SALMONELLA TYPHIMURIUM, Strain/Indicator: TA98, Metabolic Activation: RAT, LIVER, S-9, AROCLOR 1254, Method: PREINCUBATION) “inactive; negative”; (Test System: AMES SALMONELLA TYPHIMURIUM, Strain/Indicator: TA100, Metabolic Activation: HAMSTER, LIVER, S-9, AROCLOR 1254, Method: PREINCUBATION) “inactive; negative”. In addition, the mutagenic call reads like this: (Test System: AMES SALMONELLA TYPHIMURIUM, Strain/Indicator: TA100, Metabolic Activation: NONE, Method: PREINCUBATION) “inactive; negative”; (Test System: AMES SALMONELLA TYPHIMURIUM, Strain/Indicator: TA100, Metabolic Activation: RAT, LIVER, S-9, AROCLOR 1254, Method: PREINCUBATION) “inactive; negative”; (Test System: AMES SALMONELLA TYPHIMURIUM, Strain/Indicator: TA1535, Metabolic Activation: HAMSTER, LIVER, S-9, AROCLOR 1254, Method: PREINCUBATION) “inactive; negative”; (Test System: AMES SALMONELLA TYPHIMURIUM, Strain/Indicator: TA1535, Metabolic Activation: NONE, Method: PREINCUBATION) “inactive; negative”; (Test System: AMES SALMONELLA TYPHIMURIUM, Strain/Indicator: TA1535, Metabolic Activation: RAT, LIVER, S-9, AROCLOR 1254, Method: PREINCUBATION) “inactive; negative”; (Test System: AMES SALMONELLA TYPHIMURIUM, Strain/Indicator: TA1537, Metabolic Activation: HAMSTER, LIVER, S-9, AROCLOR 1254, Method: PREINCUBATION) “inactive; negative”. Also, the mutagenic call (Test System: AMES SALMONELLA TYPHIMURIUM, Strain/Indicator: TA1537, Metabolic Activation: NONE, Method: PREINCUBATION) was “inactive; negative” and the mutagenic call (Test System: AMES SALMONELLA TYPHIMURIUM, Strain/Indicator: TA1537, Metabolic Activation: RAT, LIVER, S-9, AROCLOR 1254, Method: PREINCUBATION) was “inactive; negative”.

On to `CC1(C)[C@@H]2CC[C@@]1(C)C(=O)C2=O`, for which the mutagenic call was “inactive; negative” (Test System: AMES SALMONELLA TYPHIMURIUM, Strain/Indicator: TA97A, Metabolic Activation: NONE, Method: STANDARD PLATE); “inactive; negative” (Test System: AMES SALMONELLA TYPHIMURIUM, Strain/Indicator: TA97A, Metabolic Activation: RAT LIVER S-9, AROCLOR 1254, Method: STANDARD PLATE); “inactive; negative” (Test System: AMES SALMONELLA TYPHIMURIUM, Strain/Indicator: TA98, Metabolic Activation: HAMSTER, LIVER, S-9, AROCLOR 1254, Method: STANDARD PLATE); “inactive; negative” under setting [1]; “inactive; negative” (Test System: AMES SALMONELLA TYPHIMURIUM, Strain/Indicator: TA98, Metabolic Activation: RAT LIVER S-9, AROCLOR 1254, Method: STANDARD PLATE); “inactive; negative” under setting [6]. Also, the mutagenic call reads like this: (Test System: AMES SALMONELLA TYPHIMURIUM, Strain/Indicator: TA100, Metabolic Activation: HAMSTER, LIVER, S-9, AROCLOR 1254, Method: STANDARD PLATE) “inactive; negative”; under setting [2], “inactive; negative”; (Test System: AMES SALMONELLA TYPHIMURIUM, Strain/Indicator: TA100, Metabolic Activation: RAT LIVER S-9, AROCLOR 1254, Method: STANDARD PLATE) “inactive; negative”; (Test System: AMES SALMONELLA TYPHIMURIUM, Strain/Indicator: TA100, Metabolic Activation: RAT, LIVER, S-9, AROCLOR 1254, Method: STANDARD PLATE) “inactive; negative”; (Test System: AMES SALMONELLA TYPHIMURIUM, Strain/Indicator: TA102, Metabolic Activation: NONE, Method: STANDARD PLATE) “inactive; negative”; (Test System: AMES SALMONELLA TYPHIMURIUM, Strain/Indicator: TA102, Metabolic Activation: RAT LIVER S-9, AROCLOR 1254, Method: STANDARD PLATE) “inactive; negative”. Further, the mutagenic call (Test System: AMES SALMONELLA TYPHIMURIUM, Strain/Indicator: TA1535, Metabolic Activation: HAMSTER, LIVER, S-9, AROCLOR 1254, Method: STANDARD PLATE) is “inactive; negative”; the mutagenic call under setting [3] is “inactive; negative”; the mutagenic call (Test System: AMES SALMONELLA TYPHIMURIUM, Strain/Indicator: TA1535, Metabolic Activation: RAT, LIVER, S-9, AROCLOR 1254, Method: STANDARD PLATE) is “inactive; negative”; the mutagenic call (Test System: AMES SALMONELLA TYPHIMURIUM, Strain/Indicator: TA1537, Metabolic Activation: HAMSTER, LIVER, S-9, AROCLOR 1254, Method: STANDARD PLATE) was “inactive; negative”; the mutagenic call under setting [4] was “inactive; negative”; the mutagenic call (Test System: AMES SALMONELLA TYPHIMURIUM, Strain/Indicator: TA1537, Metabolic Activation: RAT, LIVER, S-9, AROCLOR 1254, Method: STANDARD PLATE) was “inactive; negative”. Besides, the mutagenic call was “inactive; negative” (Test System: AMES SALMONELLA TYPHIMURIUM, Strain/Indicator: TA1538, Metabolic Activation: HAMSTER, LIVER, S-9, AROCLOR 1254, Method: STANDARD PLATE); “inactive; negative” under setting [5]; “inactive; negative” (Test System: AMES SALMONELLA TYPHIMURIUM, Strain/Indicator: TA1538, Metabolic Activation: RAT, LIVER, S-9, AROCLOR 1254, Method: STANDARD PLATE); “active; positive” (Test System: Mouse lymphoma, Strain/Indicator: L5178Y (tk+/tk-), Metabolic Activation: None, Method: Suspension/plate); “inactive; negative” (Test System: Mouse lymphoma, Strain/Indicator: L5178Y (tk+/tk-), Metabolic Activation: Rat, Liver, S-9, Aroclor 1254, Method: Suspension/plate).

On to `O[C@H]1C=Cc2c(ccc3c4c5c(cccc5cc23)C=C4)[C@@H]1O`, for which the mutagenic call is “inactive; negative” under setting [1]; “active; positive” (Test System: AMES SALMONELLA TYPHIMURIUM, Strain/Indicator: TA98, Metabolic Activation: RAT, LIVER, S-9, AROCLOR 1254 (0.4, 0.8, 1.15 OR 1.5 MG/PLATE), Method: STANDARD PLATE); “active; positive” under setting [6].

As for `O=C1C=C(N2CC2)C(=O)C(N2CC2)=C1N1CC1`, for the setting “Test System: UDS RODENT PRIMARY, Strain/Indicator: THY INCORP (NON-S-PHASE), Metabolic Activation: NONE, Method: LIQUID SCINTILLATION COUNTING”, the mutagenic call was “active; positive”.
